Laboratory results from publication PMC7725506, “Functional Diversification of SRSF Protein Kinase to Control Ubiquitin-Dependent Neurodevelopmental Signaling” (Developmental Cell, 2020).

How the values were obtained:
SRPK2 = SRPK2 (Homo sapiens, UniProt P78362); experiment: REX1 fluorescent ubiquitylation assay with recombinant RNF12 incubated with SRPK2; type: biochemical; conditions: pre-incubation with 10 μM
Method: Infrared scans of ubiquitylated substrate signal (Top) and quantification (Bottom). Data represented as mean ± SEM (n = 3). […] (^∗) p = 0.0350. Phospho-Ser214 and total RNF12, REX1, and SRPK2 infrared immunoblots are shown. ^∗ = non-specific fluorescent signal. (B) Recombinant RNF12 was incubated with WT or kinase dead (KD) SRPK2 and subjected to REX1 fluorescent ubiquitylation assays. Infrared scans of ubiquitylated substrate signal (Top) and quantification (Bottom). Data represented as mean ± SEM (n = 3). […] (^∗∗∗∗) p < 0.0001. Phospho-Ser214 and total RNF12, REX1, and SRPK2 infrared immunoblots are shown. ^∗ = non-specific fluorescent signal. (C) Recombinant RNF12 was incubated with WT or KD SRPK2 and SMAD7 ubiquitylation assessed. Infrared scans of ubiquitylated substrate signal (Top) and quantification (Bottom). Data represented as mean ± SD (n = 2). Phospho-Ser214 and total RNF12, REX1, and SRPK2 infrared immunoblots are shown. ^∗ = non-specific fluorescent signal. (D) Recombinant RNF12 was incubated with WT (pRNF12) or KD (unpRNF12) SRPK2 and subjected to E2 ubiquitin discharge assay. Infrared immunoblot scans (Top Left), reaction rate determinations (Top Right) and normalized quantification of E2-ubiquitin conjugate signal (Bottom) are shown. […] RNF12, REX1, phospho-Ser214 RNF12 and SRPK1 infrared immunoblots (Top) and RNF12-REX1 binding quantification (bottom) are shown. […]

RNF12 SR-motif = RNF12 SR-motif phosphorylation in mouse cortical neurons by phos-tag immunoblotting; type: cell-based; conditions: mature mouse cortical neurons cultured for 21 days, 10 μM, 4 h
Method: Figure 7 The SRPK-RNF12 Signaling Pathway Operates in Neurons (A) Primary cortical neurons isolated from E16.5 C57BL6 mice were cultured for the indicated number of days in vitro (DIV) and RNF12, SRPK1, and SRPK2, synaptophysin and actin levels analyzed via immunoblotting alongside the indicated mESC lines. (B) Cortical neurons were cultured for 21 days and treated with 10 μM MG132 and protein levels analyzed by immunoprecipitation and immunoblotting (REX1) and immunoblotting (RNF12 and ERK1/2). (C) Cortical neurons were cultured in vitro for the indicated number of days (DIV) and RNF12 and MAP2 neuron specific marker analyzed by immunofluorescence. Scale bar: 20 μm. (D) RNF12 SR-motif phosphorylation during in vitro mouse cortical neuron maturation was analyzed via phos-tag immunoblotting for RNF12. […] Synaptophysin and actin levels were determined by immunoblotting. […] Synaptophysin and actin levels were determined by immunoblotting. (F) The SRPK-RNF12-REX1 signaling pathway regulates neural gene expression and is disrupted in intellectual disability disorders. SRPK phosphorylates the RNF12 SR-motif to promote REX1 ubiquitylation and proteasomal degradation, which acts as a “brake” for neural gene expression in self-renewing pluripotent stem cells. In intellectual disability, inactivating mutations in SRPKs or RNF12 lead to REX1 accumulation and aberrant induction of neural genes. […]

Sequence of SRPK2 (P78362 1-699 isoform P78362-2): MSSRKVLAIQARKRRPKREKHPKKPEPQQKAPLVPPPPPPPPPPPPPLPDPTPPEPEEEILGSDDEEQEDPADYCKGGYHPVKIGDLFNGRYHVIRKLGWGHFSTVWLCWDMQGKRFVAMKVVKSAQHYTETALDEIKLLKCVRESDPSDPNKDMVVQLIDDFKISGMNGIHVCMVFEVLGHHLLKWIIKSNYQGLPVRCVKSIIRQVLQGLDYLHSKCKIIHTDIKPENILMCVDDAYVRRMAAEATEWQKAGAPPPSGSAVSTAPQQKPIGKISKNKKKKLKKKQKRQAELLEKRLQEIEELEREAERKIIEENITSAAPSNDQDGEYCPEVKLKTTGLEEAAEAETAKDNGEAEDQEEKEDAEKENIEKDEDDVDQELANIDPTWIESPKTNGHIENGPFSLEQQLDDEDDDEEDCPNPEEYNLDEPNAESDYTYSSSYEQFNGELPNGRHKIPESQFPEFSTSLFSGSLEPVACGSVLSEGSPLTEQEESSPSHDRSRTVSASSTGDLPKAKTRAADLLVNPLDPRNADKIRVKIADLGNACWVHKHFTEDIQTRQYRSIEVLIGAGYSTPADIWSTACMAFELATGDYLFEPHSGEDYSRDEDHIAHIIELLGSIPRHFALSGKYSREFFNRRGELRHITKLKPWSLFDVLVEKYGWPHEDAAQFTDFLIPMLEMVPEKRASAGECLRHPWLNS

CCc1cc2c(cc1-c1cccc(S(=O)(=O)F)c1)C(C)(C)c1[nH]c3cc(C#N)ccc3c1C2=O [SRPKIN-1]
enhancement of REX1 ubiquitylation following RNF12 phosphorylation by SRPK2 (SRPK2): not observed
RNF12 phosphorylation (phos-tag) (RNF12 SR-motif): suppressed RNF12 phosphorylation
